Measured values: publication PMC3530532, “Corticosteroid-Binding Globulin: Structure-Function Implications from Species Differences” (PLoS ONE, 2012)

T1: Rat CBG-WT (Rattus norvegicus, UniProt P31211)
T1 construct: residues 5 to 374 of rat CBG (P31211); GST (N, cleaved yes); made in house; host or cells: E. coli BL21 Star (DE3)
T1 sequence (P31211 27-396): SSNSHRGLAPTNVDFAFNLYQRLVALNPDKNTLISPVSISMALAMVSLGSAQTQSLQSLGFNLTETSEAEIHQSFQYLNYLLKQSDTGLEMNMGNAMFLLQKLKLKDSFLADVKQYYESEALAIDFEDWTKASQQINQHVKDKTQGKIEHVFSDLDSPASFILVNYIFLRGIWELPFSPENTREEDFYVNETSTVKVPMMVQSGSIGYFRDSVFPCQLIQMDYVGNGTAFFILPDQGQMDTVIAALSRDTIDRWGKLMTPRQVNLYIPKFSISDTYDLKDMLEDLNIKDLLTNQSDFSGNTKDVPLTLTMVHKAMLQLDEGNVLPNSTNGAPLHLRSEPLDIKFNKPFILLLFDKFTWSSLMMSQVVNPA


Key:
[1] = target: T1, Rat CBG-WT; experiment: Isothermal titration calorimetry, steroid titrated to rat CBG-WT; format: binding; details: ITC, 25°C
Method: The coding sequences of residues 11 to 383 of human CBG (Swiss-Prot entry P08185) and residues 5 to 374 of rat CBG (P31211) were cloned into a pGEX-2T vector (GE Healthcare, Uppsala), yielding N-terminal glutathione-S-transferase (GST) fusion proteins. Mutations were introduced using a two-stage PCR procedure based on the QuikChange (Stratagene, Santa Clara) site-directed mutagenesis protocol. All experiments with human CBG were conducted with a mutant in which surface residue Lys126 was replaced by alanine in order to facilitate crystallization. Wild-type rat CBG (rat CBG-WT) and rat CBG mutants CBG-RCL1, CBG-RCL2 and CBG-RCL3 were produced to probe the function of the RCL residues in rat CBG. All gene constructs were confirmed by DNA sequencing prior to protein production.
The GST-tagged human and rat CBG variants were produced in E. coli BL21 Star™ (DE3) cells (Invitrogen, Carlsbad) using the ZYM-5052 auto-inducing medium. For each variant, 10 L of ZYM-5052 medium containing 100 µg/mL ampicillin were inoculated with an overnight culture of a single clone. The flasks were incubated at 37°C until the optical density at 600 nm reached 0.3. The temperature was then lowered to 20°C, and the cells were allowed to grow for an additional 20 h. The pellet was resuspended in PBS buffer (pH 7.4) containing 5 mM EDTA after cell harvesting (4 mL of buffer per gram of pellet).
The protein samples were dialyzed against ITC buffer (20 mM potassium phosphate, 50 mM NaCl, pH 7.4) and titrated with steroids in a VP-ITC microcalorimeter (Microcal, Piscataway). All solutions were filtered (0.2 µm filter pore size) and degassed for 30 min prior to the titration experiments. The sample cell was filled with protein solution containing 15 µM rat CBG or 20 µM human CBG and titrated with steroid solutions containing 150 µM and 200 µM ligand, respectively. The titrations consisted of an initial injection of 2 µL followed by 25 consecutive injections of 10 µL ligand solution at 25°C. A spacing of 240 sec between the injections was used to allow a return to the baseline. Data points from the initial injection, which are generally affected by diffusion during the initial equilibration period after experiment setup, were discarded prior to data analysis. […] The binding curve was generated by plotting the heats of injections against the ratio of ligand to protein in the cell. Integrated heat data were analyzed using nonlinear regression fit with a one-site-binding model in the Origin-7™ software provided with the VP-ITC. Changes in the free energy and entropy can be calculated using the equation: ΔG° = −RTlnK = ΔH°−TΔS°. In this equation ΔG° is the change in Gibbs free energy, R the universal gas constant, T the temperature, and K the association constant. The change in enthalpy is denoted as ΔH°, and ΔS° is the change in entropy under standard conditions. The data shown in Table 2 were obtained from single titrations of each complex.

[2] = Thermal denaturation monitored by CD spectroscopy; format: physicochemical; details: for thermal unfolding temperature / thermal stability: CD at 222 or 220 nm, 1°C/min, 10 mM potassium phosphate pH 7.4; for change of thermal stability upon RCL cleavage: elastase-cleaved vs uncleaved, CD-monitored
Method: Heat-induced unfolding transitions were recorded at protein concentrations between 0.5 and 0.7 µM in 10 mM potassium phosphate (pH 7.4). The samples were heated at a rate of 1°C/min in a 1 cm cell and the ellipticity was monitored at 222 or 220 nm. The sensitivity was set to 50 mdeg with a bandwidth of 1 nm and 8 sec response time.

Row | Molecule | thermal unfolding temperature / thermal stability [2] | change of thermal stability upon RCL cleavage [2] | other results
1 | C[C@]12C[C@H](O)[C@H]3[C@@H](CCC4=CC(=O)CC[C@@]43C)[C@@H]1CC[C@@H]2C(=O)CO [Corticosterone] | – | – | TΔS° ([1]; rat CBG-WT): -14.6 kcal/mol; ΔG° ([1]; rat CBG-WT): -10.2 kcal/mol; ΔH° ([1]; rat CBG-WT): -24.76 kcal/mol; Kd ([1]; single titration, uncleaved rat CBG-WT): 37 ± 2 nM
2 | cleaved human alpha-1-antitrypsin: human alpha-1-antitrypsin after cleavage of the RCL | 90 °C | – | –
3 | uncleaved human alpha-1-antitrypsin: human alpha-1-antitrypsin, archetypical member of the SERPIN family, used to validate the setup | about 60 °C | – | –
4 | CBG-RCL2: rat CBG variant CBG-RCL1 plus mutations P329T and N333T (protein, UniProt P31211 23-396, looked up, variant A335V P336T P329T N333T) Corticosteroid-binding …: STNESSNSHRGLAPTNVDFAFNLYQRLVALNPDKNTLISPVSISMALAMVSLGSAQTQSLQSLGFNLTETSEAEIHQSFQYLNYLLKQSDTGLEMNMGNAMFLLQKLKLKDSFLADVKQYYESEALAIDFEDWTKASQQINQHVKDKTQGKIEHVFSDLDSPASFILVNYIFLRGIWELPFSPENTREEDFYVNETSTVKVPMMVQSGSIGYFRDSVFPCQLIQMDYVGNGTAFFILPDQGQMDTVIAALSRDTIDRWGKLMTPRQVNLYIPKFSISDTYDLKDMLEDLNIKDLLTNQSDFSGNTKDVPLTLTMVHKAMLQLDEGNVLTNSTTGVTLHLRSEPLDIKFNKPFILLLFDKFTWSSLMMSQVVNPA | – | neither of these humanized rat CBG variants displayed an increased thermal stability | –
5 | CBG-RCL3: rat CBG variant CBG-RCL2 plus R174K, D323N, G325E and N326G (protein, UniProt P31211 23-396, looked up, variant A335V P336T P329T N333T R174K D323N G325E N326G) Corticosteroid-binding …: STNESSNSHRGLAPTNVDFAFNLYQRLVALNPDKNTLISPVSISMALAMVSLGSAQTQSLQSLGFNLTETSEAEIHQSFQYLNYLLKQSDTGLEMNMGNAMFLLQKLKLKDSFLADVKQYYESEALAIDFEDWTKASQQINQHVKDKTQGKIEHVFSDLDSPASFILVNYIFLKGIWELPFSPENTREEDFYVNETSTVKVPMMVQSGSIGYFRDSVFPCQLIQMDYVGNGTAFFILPDQGQMDTVIAALSRDTIDRWGKLMTPRQVNLYIPKFSISDTYDLKDMLEDLNIKDLLTNQSDFSGNTKDVPLTLTMVHKAMLQLNEEGVLTNSTTGVTLHLRSEPLDIKFNKPFILLLFDKFTWSSLMMSQVVNPA | – | neither of these humanized rat CBG variants displayed an increased thermal stability | –
